Measured values: PMC12337082 (Journal of Biochemical and Molecular Toxicology, 2025)

Key:
[1] = system: MCF‐7; experiment: MTT cell viability assay, MCF‐7; type: cell-based, human; conditions: for IC50: Homo sapiens, MCF7, MTT
Description: (§1) MCF‐7, MDA‐MB‐231, and L‐929 mouse fibroblast cell lines were obtained from the American Type Culture Collection (ATCC, Manassas, Virginia, USA). MCF‐7 is a hormone‐responsive, differentiated mammary epithelium cell line with an ER+, PR+, and HER2‐ pattern (ATCC, HTB‐22). MDA‐MB‐231 is a triple‐negative differentiated mammary epithelium cell line (ATCC, HTB‐26). The L‐929 mouse fibroblast cell line is derived from the normal subcutaneous connective tissue of a mouse and is commonly used in cytotoxicity assays (ATCC, CCL‐1). All cell lines were cultured in DMEM medium (Dulbecco's Modified Eagle Medium, Gibco), supplemented with 10% fetal bovine serum (Gibco), 1% glutamine, and penicillin/streptomycin (Gibco) in a humidified atmosphere containing 5% CO2 at 37°C. Cell viability was tested using Trypan blue staining.
(§2) The MTT [3‐(4,5‐dimethylthiazol‐2‐yl)−2,5‐diphenyltetrazolium bromide] assay is a colorimetric assay for determining cell metabolic activity. In the MTT assay, the yellow dye MTT that dissolves in water is changed by mitochondrial reductase into a purple formazan that is non‐soluble. The water‐insoluble formazan produced is solubilized in a solubilization buffer, and absorbances are detected.
(§3) In 96‐well plates, the cells were cultivated at a density of 5 × 10^3 cells/well using 100 µL medium. […] 10 μL of the MTT labeling reagent (final concentration 0.5 mg/mL) were added to each well at the end of the incubation periods, and the wells were incubated for an additional 4 h. Next, each well received 100 μL of solubilization buffer (10% SDS in 0.01 M HCl) and was overnight incubated, and the absorbance of formazan products was evaluated at 550 nm using a multi‐mode microplate reader (Synergy H1, Biotech Instruments Inc., Vermont, USA). The results were normalized relative to the absorbances of calculated percent concentrations of DMSO. All tests involved three replicates with three independent experiments.
(§4) All statistical evaluations, including t‐tests and IC50 values, were calculated using the GraphPad Prism software tool (v6.0, GraphPad Software Inc., San Diego, USA). Statistical significance was defined as p ˂ 0.05 (*p < 0.05, **p < 0.01, ***p < 0.001, ****p < 0.0001).

[2] = system: MDA‐MB‐231; experiment: MTT cell viability assay, MDA‐MB‐231; type: cell-based, human; conditions: for IC50: MTT
Description: as §1, §2, §3, §4

[3] = system: L‐929 mouse fibroblast cell line; experiment: MTT cell viability assay, L‐929 control fibroblasts; type: cell-based
Description: as §1, §2, §3, §4

[4] = system: MCF‐7; experiment: Mitochondrial membrane potential (JC‐1) apoptosis assay, MCF‐7; type: cell-based, human; conditions: MCF‐7, 50 μM, 24 h, MMP assay
Method: (§5) Apoptosis was also investigated by evaluating mitochondrial membrane potential changes (MMP assay). MCF‐7, MDA‐MB‐231, and L‐929 cells were stained with JC‐1 dye according to the manufacturer's protocols (JC‐1 MMP Assay Kit, KA1324, Abnova). The apoptotic to healthy cell ratio was calculated using absorbances collected from two different fluorescence channels (535/595 for healthy cells, 485/535 for apoptotic cells) (Synergy H1, Biotech Instruments Inc., Vermont, USA).

[5] = system: MDA‐MB‐231; experiment: Mitochondrial membrane potential (JC‐1) apoptosis assay, MDA‐MB‐231; type: cell-based, human; conditions: MDA‐MB‐231, 50 μM, 24 h, MMP assay
Method: as §5

[6] = system: COX‐2; experiment: Western blot COX‐2 protein expression, MCF‐7; type: cell-based, human; conditions: 24 h
Method: (§6) Total protein levels were measured using the Take3 Multi‐Volume Plate (Synergy H1, BioTek Instruments Inc., Vermont, USA). In accordance with the classical protocol, transferred proteins were exposed to the following primary antibodies: Beta‐actin (NB600‐501, Novus Biologicals), Bax (SPM336, NBP2‐32809), Bcl‐2 (100/D5, NBP2‐15200), cleaved PARP (194C1439, NBP2‐27335), and COX‐2 (D‐12:sc‐166475, Santa Cruz). The bands were visualized with chemiluminescent HRP substrates (Western Bright ECL‐Advansta, K‐12045‐050). Using a chemiluminescence imaging system (Celvin S, BioStep), the relative quantification was done based on the level of β‐actin proteins.

[7] = system: COX‐2; experiment: Western blot COX‐2 protein expression, MDA‐MB‐231; type: cell-based, human; conditions: 24 h
Method: as §6

[8] = system: PGE2 release; experiment: PGE2 ELISA, MCF‐7; type: cell-based, human; conditions: Homo sapiens, MCF7; MCF‐7, 50 µM, 24 h
Method: (§7) PGE2 ELISA kit (ENZO, ADI‐900‐001) was used to determine prostaglandin synthesis levels. MCF‐7 and MDA‐MB‐231 breast cancer cells were cultured at a density of 1 × 10^6 cells/well in a 6‐well culture dish. […] Following 24 h of incubation, the medium was replaced with a fresh one, 10 µM arachidonic acid was added, and it was further incubated for 1 h. The PGE2 levels were determined according to the kit protocol.

[9] = system: PGE2 release; experiment: PGE2 ELISA, MDA‐MB‐231; type: cell-based, human; conditions: Homo sapiens; MDA‐MB‐231, 50 µM, 24 h
Method: as §7

[10] = system: Bax/Bcl‐2 ratio; experiment: Western blot Bax/Bcl‐2 ratio in breast cancer cell lines; type: cell-based, human; conditions: both cell lines, 50 µM, 24 h
Method: as §6

[11] = system: c‐PARP; experiment: Western blot cleaved PARP, MDA‐MB‐231; type: cell-based, human; conditions: MDA‐MB‐231, 24 h, all concentrations (50 and 75 µM); not measurable in MCF‐7
Method: as §6

`CCc1cccc2c3c([nH]c12)C(CC)(CC(=O)N/N=C/c1ccc(OC)cc1)OCC3` (racemic) [SGK 206, 2‐(1,8‐Diethyl‐1,3,4,9‐tetrahydropyrano[3,4‐b]indole‐1‐yl) acetic acid[(4‐methoxyphenyl)methylene]acetohydrazide] showed an IC50 ([1]; MCF‐7, 24 h) of 37 ± 1.74 µM, an IC50 ([1]; MCF‐7, 48 h) of 34 ± 5.7 µM and an IC50 ([1]; MCF‐7, 72 h) of 26 ± 0.66 µM. The “Selectivity index (SI)” value ([1]; MCF‐7 in comparison to L‐929, 24 h) was 1.93, the “Selectivity index (SI)” value ([1]; MCF‐7 in comparison to L‐929, 48 h) was 1.4 and the “Selectivity index (SI)” value ([1]; MCF‐7 in comparison to L‐929, 72 h) was 1.91. It also gave an IC50 ([2]; Homo sapiens, MDA-MB-231, 24 h, MDA‐MB‐231, 24 h) of 43 µM, an IC50 ([2]; Homo sapiens, MDA-MB-231, 48 h, MDA‐MB‐231, 48 h) of 38 ± 2.3 µM and an IC50 ([2]; Homo sapiens, MDA-MB-231, 72 h, MDA‐MB‐231, 72 h) of 36 ± 3.19 µM. The IC50 ([2]; MDA‐MB‐231, 24 h) was 43.2 ± 1.94 µM, the “Selectivity index (SI)” value ([2]; MDA‐MB‐231 in comparison to L‐929, 24 h) was 1.65 and the “Selectivity index (SI)” value ([2]; MDA‐MB‐231 in comparison to L‐929, 48 h) was 1.26. For the same compound, the “Selectivity index (SI)” value ([2]; MDA‐MB‐231 in comparison to L‐929, 72 h) was 1.38, the IC50 ([3]; L‐929, 24 h) was 71.3 ± 2.92 µM and the IC50 ([3]; L‐929, 48 h) was 47.9 ± 1.2 µM. For the same compound, the IC50 ([3]; L‐929, 72 h) was 49.7 ± 1.64 µM, the IC50 ([3]; Mus musculus, L929, 24 h, L‐929, 24 h) was 71 µM and the IC50 ([3]; Mus musculus, L929, 48 h, L‐929, 48 h) was 47 µM. For the same compound, the IC50 ([3]; Mus musculus, L929, 72 h, L‐929, 72 h) was 49 µM, the “Increase in apoptosis compared to the control group” value [4] was 48% and the “Increase in apoptosis compared to the control group” value [5] was 57%. The “Decrease in COX‐2 protein expression compared to the control group” value (from here on “Decrease in COX‐2 protein expression”) ([6]; MCF‐7, 50 µM) was 30%, the “Decrease in COX‐2 protein expression” value ([6]; MCF‐7, 75 µM) was 41% and the “Decrease in COX‐2 protein expression” value ([7]; MDA‐MB‐231, 50 µM) was 16%. For the same compound, the “Decrease in COX‐2 protein expression” value ([7]; MDA‐MB‐231, 75 µM) was 37%, the inhibition at 50 µM [8] was 90% and the inhibition at 50 µM [9] was 91%. For the same compound, the “Bax/Bcl‐2 ratio change” value [10] was “significantly increased” and the “c‐PARP (89‐kD fragment) protein change” value [11] was “consistent activation”.
